Laboratory results from patent US10512269B2, “Herbicidal compounds” (Syngenta Participations AG, priority 2015, dated 2019).

What was measured:
Test in all cases: B1 Post-emergence efficacy, glasshouse pot test
Type in all cases: in vivo
Conditions in all cases: post-emergence spray, evaluated after 13 days
[1] = system: Amaranthus retoflexus (AMARE)
Protocol: (§1) Seeds of a variety of test species are sown in standard soil in pots: —Solanum nigrum (SOLNI), Amaranthus retoflexus (AMARE), Setaria faberi (SETFA), Echinochloa crus-galli (ECHCG), Ipomoea hederacea (IPOHE), Lolium perenne (LOLPE). After 8 days cultivation (post-emergence) under controlled conditions in a glasshouse (at 24/16° C., day/night; 14 hours light; 65% humidity), the plants are sprayed with an aqueous spray solution derived from the formulation of the technical active ingredient in acetone/water (50:50) solution containing 0.5% Tween 20 (polyoxyethelyene sorbitan monolaurate, CAS RN 9005-64-5). Compounds are applied at 1000 g/ha and 250 g/ha. The test plants are then grown in a glasshouse under controlled conditions in a glasshouse (at 24/16° C., day/night; 14 hours light; 65% humidity) and watered twice daily. After 13 days, the test is evaluated for the percentage damage caused to the plant. The biological activities are assessed on a five point scale (5=80-100%; 4=60-79%; 3=40-59%; 2=20-39%; 1=0-19%). A blank value in the table is indicative that the compound was not tested on that species.

[2] = system: Echinochloa crus-galli (ECHCG)
Protocol: as §1

[3] = system: Ipomoea hederacea (IPOHE)
Protocol: as §1

Lolium perenne (LOLPE) = system: Lolium perenne (LOLPE)
Protocol: as §1

Setaria faberi (SETFA) = system: Setaria faberi (SETFA)
Protocol: as §1

Solanum nigrum (SOLNI) = system: Solanum nigrum (SOLNI)
Protocol: as §1

Row | Compound | percentage damage caused to the plant, five point scale, AMARE ([1]; 250 g/ha) | percentage damage caused to the plant, five point scale, AMARE ([1]; 1000 g/ha) | percentage damage caused to the plant, five point scale, ECHCG ([2]; 250 g/ha) | percentage damage caused to the plant, five point scale, ECHCG ([2]; 1000 g/ha) | percentage damage caused to the plant, five point scale, IPOHE ([3]; 250 g/ha) | percentage damage caused to the plant, five point scale, IPOHE ([3]; 1000 g/ha) | percentage damage caused to the plant, five point scale, LOLPE (Lolium perenne (LOLPE); 250 g/ha) | percentage damage caused to the plant, five point scale, LOLPE (Lolium perenne (LOLPE); 1000 g/ha) | percentage damage caused to the plant, five point scale, SETFA (Setaria faberi (SETFA); 250 g/ha) | percentage damage caused to the plant, five point scale, SETFA (Setaria faberi (SETFA); 1000 g/ha) | percentage damage caused to the plant, five point scale, SOLNI (Solanum nigrum (SOLNI); 250 g/ha) | percentage damage caused to the plant, five point scale, SOLNI (Solanum nigrum (SOLNI); 1000 g/ha)
1 | O=S1(=O)C(c2c(Cl)ccc(Cl)c2OCc2ccccc2)=C(O)c2scnc2N1CC(F)F [Compound 13.22] | 3 (3=40-59%) | 2 (2=20-39%) | 1 (1=0-19%) | 2 (2=20-39%) | 4 (4=60-79%) | 5 (5=80-100%) | 2 (2=20-39%) | 2 (2=20-39%) | 1 (1=0-19%) | 2 (2=20-39%) | 3 (3=40-59%) | 4 (4=60-79%)
2 | C#CCn1c(=O)c(-c2c(Cl)ccc(Cl)c2OCc2cnc(Cl)s2)c(O)c2scnc21 [Compound 1.19, 6-[3,6-dichloro-2-[(2-chlorothiazol-5-yl)methoxy]phenyl]-7-hydroxy-4-prop-2-ynyl-thiazolo[4,5-b]pyridin-5-one] | 5 (5=80-100%) | 5 (5=80-100%) | 5 (5=80-100%) | 5 (5=80-100%) | 5 (5=80-100%) | 5 (5=80-100%) | 5 (5=80-100%) | 5 (5=80-100%) | 5 (5=80-100%) | 5 (5=80-100%) | 5 (5=80-100%) | 5 (5=80-100%)
3 | C#CCN1c2ncsc2C(O)=C(c2c(Cl)ccc(Cl)c2OCc2ccccc2)S1(=O)=O [Compound 5.22] | 2 (2=20-39%) | 1 (1=0-19%) | 2 (2=20-39%) | 2 (2=20-39%) | 2 (2=20-39%) | 2 (2=20-39%) | 2 (2=20-39%) | 2 (2=20-39%) | 1 (1=0-19%) | 2 (2=20-39%) | 1 (1=0-19%) | 1 (1=0-19%)
4 | C#CCn1c(=O)c(-c2c(Cl)ccc(Cl)c2OCc2ccccc2)c(O)c2nsnc21 [Compound 9.22, 6-(2-benzyloxy-3,6-dichloro-phenyl)-7-hydroxy-4-prop-2-ynyl-[1,2,5]thiadiazolo[3,4-b]pyridin-5-one] | 4 (4=60-79%) | 5 (5=80-100%) | 2 (2=20-39%) | 3 (3=40-59%) | 5 (5=80-100%) | 5 (5=80-100%) | 4 (4=60-79%) | 5 (5=80-100%) | 2 (2=20-39%) | 5 (5=80-100%) | 4 (4=60-79%) | 5 (5=80-100%)
5 | O=c1c(-c2c(Cl)ccc(Cl)c2OCc2cnc(Cl)s2)c(O)c2scnc2n1CC(F)F [Compound 3.19] | 5 (5=80-100%) | 5 (5=80-100%) | 4 (4=60-79%) | 5 (5=80-100%) | 5 (5=80-100%) | 5 (5=80-100%) | 5 (5=80-100%) | 5 (5=80-100%) | 5 (5=80-100%) | 5 (5=80-100%) | 5 (5=80-100%) | 5 (5=80-100%)
6 | C#CCn1c(=O)c(-c2c(F)ccc(Cl)c2OCc2ccccc2)c(O)c2csnc21 [Compound 15.22] | 4 (4=60-79%) | 5 (5=80-100%) | 2 (2=20-39%) | 3 (3=40-59%) | 4 (4=60-79%) | 3 (3=40-59%) | 3 (3=40-59%) | 4 (4=60-79%) | 1 (1=0-19%) | 3 (3=40-59%) | 4 (4=60-79%) | 5 (5=80-100%)
